Assay: mn = molality of the nth substance listed, in mol/kg
Details: 298.15 K, Liquid, Frequency=10 MHz, Single path-length method

NCC(=O)N[C@@H](CC(N)=O)C(=O)NCC(=O)O [glycyl-L-asparaginylglycine] + O
speed of sound [m/s]
Details	10000 kPa	20000 kPa	40000 kPa	60000 kPa	80000 kPa	100000 kPa	120000 kPa
m1 = 0.01982	1515.6	1532.4	1566	1599.5	1632.8	1666	1698.8
m1 = 0.02619	1516.3	1533.1	1566.7	1600.2	1633.5	1666.7	1699.6
m1 = 0.02894	1516.6	1533.4	1567.1	1600.5	1633.9	1667	1699.9
m1 = 0.03507	1517.3	1534.1	1567.8	1601.3	1634.6	1667.8	–
m1 = 0.03983	1517.8	1534.6	1568.3	1601.8	1635.1	1668.3	–

CC(C)C[C@H](NC(=O)CN)C(=O)NCC(=O)O [glycyl-L-leucylglycine] + O
speed of sound [m/s]
Details	10000 kPa	20000 kPa	40000 kPa	60000 kPa	80000 kPa	100000 kPa	120000 kPa
m1 = 0.02682	1517.5	1534.2	1567.7	1601.1	1634.4	1667.5	1700.2
m1 = 0.03524	1518.6	1535.4	1568.9	1602.3	1635.6	1668.7	1701.4
m1 = 0.04618	1520.2	1537	1570.6	1604	1637.2	1670.2	1702.9
m1 = 0.05878	1522.1	1538.9	1572.4	1605.8	1639	1672	1704.7
m1 = 0.06956	1523.7	1540.5	1574	1607.3	1640.6	1673.5	1706.2
m1 = 0.07978	1525.2	1542	1575.5	1608.8	1642	1674.9	1707.5

NCC(=O)N[C@@H](Cc1ccc(O)cc1)C(=O)NCC(=O)O [glycyl-L-tyrosylglycine] + O
speed of sound [m/s]
Details	10000 kPa	20000 kPa	40000 kPa	60000 kPa	80000 kPa	100000 kPa	120000 kPa
m1 = 0.02297	1516.3	1533.1	1566.7	1600.1	1633.5	1666.6	1699.5
m1 = 0.02401	1516.5	1533.2	1566.8	1600.3	1633.6	1666.8	1699.6
m1 = 0.02562	1516.7	1533.5	1567	1600.5	1633.9	1667	1699.8
m1 = 0.02676	1516.8	1533.6	1567.2	1600.7	1634	1667.1	1700
m1 = 0.02756	1516.9	1533.7	1567.3	1600.8	1634.1	1667.3	1700.1
m1 = 0.02905	1517	1533.9	1567.4	1601	1634.3	1667.5	1700.3

NCC(=O)NCC(=O)NCC(=O)O [glycylglycylglycine] + O
speed of sound [m/s]
Details	10000 kPa	20000 kPa	40000 kPa	60000 kPa	80000 kPa	100000 kPa	120000 kPa
m1 = 0.03621	1516.9	1533.8	1567.4	1600.8	1634.2	1667.4	1700.2
m1 = 0.0487	1518.2	1535	1568.6	1602.1	1635.5	1668.6	1701.4
m1 = 0.06185	1519.5	1536.3	1570	1603.4	1636.8	1669.9	1702.8
m1 = 0.07503	1520.8	1537.7	1571.3	1604.8	1638.2	1671.3	1704
m1 = 0.08705	1522.1	1538.9	1572.5	1606.1	1639.4	1672.5	1705.2
m1 = 0.1005	1523.3	1540.2	1573.8	1607.4	1640.7	1673.8	1706.6

— the NIST ThermoML archive (doi:10.1016/j.jct.2016.03.032)
